Test results as given in BindingDB's records for doi:10.1016/s0960-894x(99)00675-7 (Medivir, 2000).

Target: T1, Gag-Pol polyprotein [588-1027]/[588-1147] (Human immunodeficiency virus 1, UniProt P04585)
T1 construct: 588-1027; 588-1147
Experiment: HIV-1 RT Assay
Conditions: pH 7.8; 37 °C
Excerpt: The IC50 of reverse transcriptase is the concentration that inhibits 50% of recombinant HIV-1 RT RNA-directed DNA polymerase activity in vitro.

SMILES	IC50
O=C(CCNC(=S)Nc1ccc(Br)cn1)c1ccccc1 [3-(5-bromopyridin-2-yl)-1-(3-oxo-3-phenylpropyl)thiourea]	< 0.027 µM
COc1ccccc1CCN=C(NC#N)Nc1nccs1 [2-cyano-3-[2-(2-methoxyphenyl)ethyl]-1-1,3-thiazol-2-ylguanidine]	> 10 µM
N#CN/C(=N\c1ccc(Cl)cn1)NCCc1ccccc1 [5-chloro-2-cyano-1-(2-phenylethyl)pyridine-2-guanidine]	> 10 µM
O=C(CC/N=C(\S)Nc1ccc(Br)cn1)c1cc(F)ccc1F [3-(5-bromopyridin-2-yl)-1-[3-(2,5-difluorophenyl)-3-oxopropyl]thiourea]	< 0.025 µM
O=S(=O)(NCCc1ccccc1)Nc1ccc(Cl)cn1 [[(5-chloropyridin-2-yl)sulfamoyl](2-phenylethyl)amine]	> 10 µM
